The numbers were not newly measured in patent US20040265231A1, “Use of antioxidants to mitigate radioimmunotherapy-induced radiation toxicity” (priority 1999, published 2004), which cites them from elsewhere.

The conditions of data set [1]: for radioprotective effect (frequency of micronuclei and chromosomal aberration post-radiation): murine study, gamma-ray.

Turning to `O=C1O[C@H]([C@@H](O)CO)C(O)=C1O` [vitamin C, L-ascorbic acid], the “radioprotective effect (frequency of micronuclei and chromosomal aberration post-radiation)” value in data set [1] was “exhibited radioprotective effects”. The “radioprotective effect against internalized 131I and 125I” value (dietary and injected) is on record as “exhibited radioprotective effects”. Also, the “radioprotective effect against 210Po (alpha emission)” value (in vivo) was “not against alpha emission from ^210Po”.
vitamin A: for the setting “in vivo”, the “radioprotection against tissue incorporated I5I” value was “effective radioprotector” and the “radioprotective effect against 210Po (alpha emission)” value is given as “not against ^210Po”.
As to vitamin E, the “radioprotective effect (frequency of micronuclei and chromosomal aberration post-radiation)” value in data set [1] was “exhibited radioprotective effects”. Besides, the “radioprotective effect of vitamin alone” value in data set [1] (rats and mice) is “ineffective”.
